Values after ≈ are worked out from the molar mass of the structure shown.
Columns and labels:
P. aeruginosa = assay: In vitro antibacterial activity (MIC, minimal bactericidal concentration); format: cell-based, Pseudomonas aeruginosa; details: CFU enumeration
[1] = tested on: B16-F10-Luc2 melanoma lung metastasis; assay: In vivo efficacy in a lung metastasis model; set-up: species or system C57BL/6 mice
Description: This model was established by intravenously injecting 1×10^5 B16-F10-Luc2 cells through the tail vein of C57BL/6 mice. The treatment regimen consisted of four 75-μg DOX doses given every other day, with the first dose administered one day after the tumor challenge. […] We also quantified the overall lung metastasis burden based on the bioluminescence intensity in the lungs (FIG. 16d). […] Additionally, we monitored for changes in body weight during the entire treatment period (FIG. 16g).
In vivo efficacy in a lung metastasis model. […] The mice received treatment with free DOX, NP(DOX) and algae-NP(DOX)-robot through intratracheal instillation on days 1, 3, 5 and 7 after tumor cell inoculation. Mice without treatment were used as controls. To monitor tumor growth, on days 12, 16, 20, 24 and 28 after tumor cell inoculation, the mice were intraperitoneally administered 200 μl of 5 mg ml^−1 D-luciferin (Syd Labs) in DPBS (Gibco). Bioluminescence signals were detected using a PerkinElmer Xenogen IVIS 200 system. The body weight and survival of each mouse were also monitored throughout the study.

[2] = In vivo safety evaluation of algae-NP(DOX)-robot; set-up: species or system C57BL/6 mice
Experimental: In vivo toxicity assessment of algae-NP(DOX)-robot. Finally, the toxicity profile of the algae-NP(DOX)-robot was assessed. Healthy mice were subjected to intratracheal administration using one of three different treatments: algae-NP(DOX)-robot, free DOX, and NP(DOX). Each mouse received a total of four 75-μg DOX doses given every other day. A blood count and a comprehensive metabolic panel were performed one day after the final injection to assess the effects of these treatments.
In vivo safety evaluation. Healthy female C57BL/6 mice were intratracheally administered with free DOX, NP(DOX) and algae-NP(DOX)-robot every other day for a total of four injections. Mice without treatment were used as controls. At 24 h following the last treatment, blood samples were collected via submandibular puncture into Microvette 100 EDTA K3E tubes (Sarstedt) for blood cell quantification. To collect serum for comprehensive blood chemistry analysis, blood samples were obtained without any anticoagulant, placed at room temperature for 30 min, and centrifuged at 3000 g for 10 min. Both the blood cell quantification and blood chemistry analyses were performed by the Animal Care Program Diagnostic Services Laboratory at UCSD. For histological analysis, the heart, liver, spleen, lungs and kidneys were excised and fixed in phosphate-buffered 10% formalin (Fisher Chemical), followed by sectioning and hematoxylin and eosin staining. These histological procedures were conducted by the Moores Cancer Center Tissue Technology Shared Resource.

SMILES	minimal bactericidal concentration (P. aeruginosa) [µg/mL]	median survival time ([1]; four 75-μg DOX doses intratracheal) [days]	body weight during treatment ([1]; mouse, in vivo)	liver and kidney biomarkers (ALB, ALP, ALT, BUN, TBIL, CRE) ([2]; four 75-μg DOX doses, one day after final dose)	histology of heart, liver, spleen, lungs and kidneys ([2]; mouse, in vivo)	other biomarkers (CA, GLU, PHOS, K+, Na+, TP) ([2]; mouse, in vivo)	white blood cells, red blood cells and platelets ([2]; mouse, in vivo)
O=C(O)c1cn(C2CC2)c2cc(N3CCNCC3)c(F)cc2c1=O [free Cip, ciprofloxacin]	0.125 (≈ 0.377 µM)						
COc1cccc2c1C(=O)c1c(O)c3c(c(O)c1C2=O)C[C@@](O)(C(=O)CO)C[C@@H]3O[C@H]1C[C@H](N)[C@H](O)[C@H](C)O1 [free DOX, doxorubicin]		27	pronounced decline in body weight	no abnormalities	no observable damage	within their normal ranges	elevated platelet levels

Reference: patent US12678514B2, “Algae-based microrobot for drug delivery” (priority 2023, dated 2026)
